For one series, the system named is KB. The experiment in a line: Antitumor activity against human KB cell xenografted mouse assessed as inhibition of tumor growth at 900 ug/kg administered every 2 days for 6 days. The format is functional. For orientation: A xenograft is tissue or cells of one species grown in another, often human tumour cells in immunodeficient mice.
Series [1] in a line: Antitumor activity against multidrug resistant human KBv200 cell xenografted mouse assessed as inhibition of tumor growth at 900 ug/kg administered every 2 days for 6 days. The format is functional.
For series [2], the system named is L1210. Put plainly: Antitumor activity against mouse L1210 cell xenografted mouse at 15000 ug/kg. Format: functional.
Series [3] concerns P388. The experiment in a line: Antitumor activity against mouse P388 cells at 250 ug/kg by in vivo 3PS assay. Format: functional.
Series [4] has as its system P388. Put plainly: Antitumor activity against mouse P388 cells at 25 ug/kg by in vivo 3PS assay. The format is functional.
Series [5] deals with P388. The experiment in a line: Antitumor activity against mouse P388 cells xenografted mouse at 0.025 mg/kg/day for 10 days by 3PS assay. Format: functional.
The subject of series [6] is L1210. The experiment in a line: Antitumor activity against mouse L1210 cell xenografted mouse at 200 ug/kg. The format is functional.
Series [7] deals with A2780. The experiment in a line: Antitumor activity against human A2780 cell xenografted athymic mouse at 1000 ug/kg/day. Conditions: read-out: TGI. The format is functional.
For a further series, the system named is Mus musculus. The experiment in a line: Toxicity in mouse P388 cells xenografted mouse at 0.22 mg/kg/day for 10 days. Conditions: in vivo, 240 h.
Series [8] concerns P388. The experiment in a line: Antitumor activity against mouse P388 cells in at 1.4 mg/kg by in vivo 3PS assay. Format: functional.
The test system of series [9] is A2780. The experiment in a line: Antitumor activity against human A2780 cell xenografted athymic mouse at 125 ug/kg/day. The format is functional. The note with it: read-out: TGI.
In series [10] the test system is L1210. The experiment in a line: Antitumor activity against mouse L1210 cell xenografted mouse at 400 ug/kg. The format is functional.
Series [11] concerns P388. The experiment in a line: Antitumor activity against mouse P388 cells xenografted mouse at 0.95 mg/kg/day for 10 days by 3PS assay. The format is functional.

The structures appear in SMILES notation.

With `CCCCC[C@@H](O)[C@H](O)CCC[C@@H](O)[C@H]1CC[C@H]([C@H]2CC[C@H]([C@H](O)CCCCCCCCCCCCC3=C[C@H](C)OC3=O)O2)O1`, the inhibition in vivo at 0.9 mg/kg in the series with KB came to 52.3%; in series [1] it was 56.5%.

In general, T/C refers to the ratio of treated to control. `CC(=O)O[C@H]1C(=O)[C@@]2(C)[C@H]([C@H](OC(=O)c3ccccc3)[C@]3(O)C[C@H](OC(=O)[C@H](O)[C@@H](NC(=O)c4ccccc4)c4ccccc4)C(C)=C1C3(C)C)[C@]1(OC(C)=O)CO[C@@H]1C[C@@H]2O` [PACLITAXEL] gave a T/C in the series on L1210 [2] of 139%. The compound `CCCCCCCCCCC(O)C1CCC(C2CCC(C(O)CCCCCCCCCCC(O)CC3=CC(C)OC3=O)O2)O1` (centres undefined) [ROLLINIASTATIN] yielded a T/C in the series with P388 [3] of 128%.

On to `CCCCCCCCCCC(O)C1CCC(C2CCC(C(O)CCCCCCCC[C@H](O)CC3=C[C@@H](C)OC3=O)O2)O1` (some centres undefined) [ASIMICIN], for which the results for the T/C with P388 [4], with P388 [5] and with L1210 [6] were 124%, 124% and 131%, respectively.

For `CCCCCCCCCC[C@H](O)[C@H]1CC[C@H]([C@H](O)CC[C@H](O)[C@@H]2CC[C@@H](CCCCCCC[C@@H](O)CC3=C[C@H](C)OC3=O)O2)O1` [BULLATALICIN], the inhibition in vivo at 1 mg/kg/day in the series with A2780 [7] was found to be 75%. With `CCCCCCCCCC[C@@H](O)[C@H]1CC[C@H]([C@H]2CC[C@H]([C@H](O)CCCCCCCCCC[C@@H](O)CC3=C[C@H](C)OC3=O)O2)O1` [ASIMICIN], the Activity result in the series with Mus musculus is on record as “Toxic”. As for `CCCCCCCCCC[C@H](OC(C)=O)[C@H]1CC[C@H]([C@H]2CC[C@H]([C@H](O)CCCCCCCCCCCCC3=C[C@H](C)OC3=O)O2)O1` [UVARICIN], the T/C with P388 [8] is recorded as 157%. On to `CCCCCCCCCC[C@H](O)[C@H]1CC[C@H]([C@H]2CC[C@H]([C@H](O)CCCCCCCCCC[C@@H]3CC(CC(C)=O)C(=O)O3)O2)O1` (some centres undefined) [BULLATACINONE], for which the inhibition in vivo at 0.125 mg/kg/day in the series on A2780 [9] worked out at 52%. In the series on L1210 [10], this compound yielded a T/C of 144%.

Take `CCCCCCCCCCC(O)C1CCC(C2CCC(C(O)C(=O)CCCCCCCCCCCC3CC(C)OC3=O)O2)O1` (centres undefined) [ROLLINONE]: in the series with P388 [8], the T/C is 147%.

With `CCCCCCCCCCCC[C@@H](O)[C@H]1CC[C@H]([C@H](O)CCCC[C@H](O)CCCCC[C@@H](O)CC2=CC(C)OC2=O)O1` (some centres undefined) [ANNONACIN], the T/C with P388 [11] stood at 124%.

The record behind these values is ChEMBL document CHEMBL1155127, “Paw paw and cancer: annonaceous acetogenins from discovery to commercial products” (J Nat Prod, 2008).
